Reference: US20160024597A1, “miRNAs AS THERAPEUTIC TARGETS IN CANCER” (The Research Foundation For The State University Of New York, priority 2009, published 2016)

Tests used:
[1] = system: CD133+hi/CD44+hi colon cancer stem-like cells; assay: 5-FU cell death assay, FITC Annexin V and PI flow cytometry; format: cell-based; settings: FACS-sorted CD133+hi/CD44+hi cells, lethal dose of 5-FU (100 μM) for 48 h
Description: HCT 116 (wt-p53) cells were sorted with multiparametric flow cytometry with BD FACS Aria cell sorter (Becton Dickinson, CA) at sterile conditions. Cells were prepared as described above and labeled with one or several markers conjugated anti-human CD133-PE (clone 105902; R&D Systems, MN); CD44-FITC (clone F10-44-2, R&D Systems, MN). Antibodies were diluted in buffer containing 5% BSA, 1 mM EDTA and 15-20% blocking reagent (Miltenyi Biotec, CA) to inhibit unspecific binding to non-target cells. After 15 min incubation at 4° C., stained cells were washed, resuspended in 500 μl of MACS buffer and sorted.
(§1) Colon cancer stem-like cells were transfected with 100 nM of LNA anti-miR-140 using Lipofectamine 2000 after FACS-sorting. […] The dead cells were determined by the fluorescein isothiocyanate (FITC) Annexin V and PI detection kit (BD Biosciences, Pharmingen, San Diego, Calif., USA). Briefly, cells were harvested and resuspended in 1× Annexin V binding and stained with Annexin V (5 μl) and PI (5 μl) for 15 min at room temperature in the dark. After additional 400 μl of binding buffer, cells were analyzed by flow cytometry. […]

[2] = system: nonsorted control HCT 116 (wt-p53) cells; assay: as above; format: cell-based, human; settings: lethal dose of 5-FU (100 μM) for 48 h
Description: as §1

HCT 116 (wt-p53) cells [3] = assay: Chemosensitivity assay to 5-fluorouracil (WST-1); format: cell-based, human; settings: 100 nM transfected, 5-FU 2 to 100 μM for 72 h, vs miR control
Description: HCT 116 (wt-p53) cells were replated in 96-well plates at 2×10^3 cells per well in triplicate after transfected with miR-140, miR control or siRNA against HDAC4 in 100 μl of medium. After 24 h, 5-FU (ranged from 2 to 100 μM) was added and incubated for 72 h. WST-1 (10 μl) was added to each well. After 1 h incubation, absorbance was measured. Nonspecific miR was used as the negative control.

HCT 116 (wt-p53) cells [4] = assay: WST-1 cell proliferation assay after miR-140 transfection; format: cell-based, human; settings: 100 nM transfected, day 5, n=6
Description: (§2) Cells were plated in six-well plates at a density of 2×10^5 cells/well. The next day, cells were transfected with 100 nM of miR-140 precursor or non specific miR control (Ambion, Inc.) with Oligofectamine (Invitrogen Inc.) based on the manufacturer's instructions. Positive control siRNA specific against HDAC4 (ON-TARGET plus SMARTpool L-003497-00-0010, human HDAC4, NM 006037) was purchased from Dharmacon and transfected with Oligofectamine according to the manufacturer's protocols at a final concentration of 100 nM.
(§3) Cells were plated in 96-well plates with 6 repeats at 2,000 cells/well after transfection with miR-140 or miR control. Cells were cultured for 24, 48, 72, 96 and 120 h. The absorbance at 450 and 630 nm was measured after incubation with 10 μl of WST-1 for 1 h.

HCT 116 (null-p53) cells [5] = assay: as above; format: cell-based, human; settings: 100 nM transfected, day 5, n=6
Description: as §2, §3

p21 = p21 expression by Western immunoblot; format: cell-based; settings: U-2 OS (wt-p53) and HCT 116 (wt-p53) cells, 48 h after transfection
Description: (§4) Forty-eight hours after transfection with miR-140 or miR control, cells were harvested and lysed in 1×RIPA buffer (Sigma) supplied with 100 uM PMSF (sigma) and proteinase inhibitor cocktail (Sigma). Equal amounts of protein were resolved by a 8% SDS-PAGE gels using the method of Laemmli (Laemmli, 1970), and transferred to polyvinylidene fluoride membranes (BIO-RAD Laboratories). The membranes were then blocked by 5% nonfat milk in TBST (Tris-buffered saline and 1% Tween-20) at room temperature for 1 h. The primary antibodies used for the analysis included goat anti-HDAC4 polyclonal Ab (1:1000, N-18), mouse anti-p53 mAb (1:1000, DO-1), mouse anti-p21 mAb(1:1000, F-5), mouse anti-tubulin mAb (1:1000, TU-02), all from Santa Cruz Biotechnology. Horseradish peroxidase-conjugated antibodies against mouse or goat (1:1000, Santa Cruz Biotechnology) were used as the secondary antibodies. Protein bands were visualized with a chemiluminescence detection system using Super Signal substrate (Pierce).

HCT 116 (wt-p53) cells [6] = assay: Cell cycle analysis by flow cytometry; format: cell-based, human; settings: 100 nM, 36 h after transfection, vs miR control
Description: (§5) Cells were transfected with miR-140 and miR control described as above. At 36 h after transfection, cells were harvested and resuspended at 0.5-1×10^5 cells/ml in modified Krishan buffer (He, 2007; Tarasov, 2007), containing 0.1% sodium citrate and 0.3% NP-40 and kept at 4° C. Before being analyzed by flow cytometry, cells were treated with 0.02 mg/ml RNase H and stained with 0.05 mg/ml propidium iodide (Sigma).

HCT 116 (null-p53) cells [7] = assay: Cell cycle analysis by flow cytometry; format: cell-based, human; settings: 100 nM, 36 h after transfection
Description: as §5

HCT 116 (wt-p53) cells [8] = assay: Chemosensitivity assay to methotrexate (WST-1); format: cell-based, human; settings: 100 nM transfected, methotrexate 10-1000 nM for 72 h, vs miR control
Description: U-2 OS and HCT 116 (wt-p53) cells were replated in 96-well plates at 2×10^3 cells/well in triplicate after transfected with miR-140, miR control, or siRNA against HDAC4 in 100 μl of medium. Twenty-four hours later, methotrexate (ranged from 10-1000 nM) was added and incubated for 72 h. Ten μl of WST-1 (Roche Applied Science) was added to each well. After 1 h incubation, absorbance was measured at 450 and 630 nm respectively. Non-specific miRNA was used as the negative control.

U-2 OS cells (wt-p53) [9] = assay: WST-1 cell proliferation assay after miR-140 transfection; format: cell-based; settings: U-2 OS (wt-p53), 100 nM transfected, day 5, n=6
Description: as §2, §3

MG63 cells (mut-p53) [10] = assay: as above; format: cell-based; settings: 100 nM transfected, day 5, n=6
Description: as §2, §3

HDAC4 mRNA = HDAC4 mRNA expression by real time qRT-PCR; format: cell-based, human; settings: U-2 OS (wt-p53) and HCT 116 (wt-p53) cells, 100 nM, 24 hrs, GAPDH normalized
Description: as §2
Total RNA, including miRNAs, was isolated from cell lines or clinical specimens by using TRIzol reagent (Invitrogen, Inc.) according to the manufacturer's instructions to determine whether the cells were transfected with miR control, miR-140 or siHDAC4 at a final concentration of 100 nM for 24 hrs before RNA isolation.
cDNA was synthesized with the High Capacity cDNA synthesis kit (Applied Biosystems) using 2 μg of total RNA as the template and 10× random primers. Real-time qPCR analysis was done on the experimental mRNAs. The PCR primers and probes for HDAC4, and the internal control gene GAPDH were purchased from Applied Biosystems. qRT-PCR was done on an ABI 7500HT instrument under the following conditions: 50° C., 2 min for one cycle; 95° C., 10 min; 95° C., 15 s; 60° C., 1 min for 40 cycles (n=3).

U-2 OS cells (wt-p53) [11] = assay: Cell cycle analysis by flow cytometry; format: cell-based; settings: U-2 OS (wt-p53), 100 nM, 36 h after transfection, vs miR control
Description: as §5

MG63 cells (mut-p53) [12] = assay: Cell cycle analysis by flow cytometry; format: cell-based; settings: 100 nM, 36 h after transfection
Description: as §5

p53 = p53 expression by Western immunoblot; format: cell-based; settings: U-2 OS (wt-p53) and HCT 116 (wt-p53) cells, 48 h after transfection
Description: as §4

HDAC4 protein = HDAC4 protein expression by Western immunoblot after transfection; format: cell-based, human; settings: U-2 OS (wt-p53) and HCT 116 (wt-p53) cells, 100 nM, 48 h after transfection
Description: as §2
as §4, with “Horseradish peroxidase-conjugated antibodies against mouse or goat (1:1000, Santa Cruz Biotechnology) were used as the secondary antibodies. Protein bands were visualized with a chemiluminescence detection system using Super Signal substrate (Pierce).” left out

Compound	cell death [1]	cell death [2]	chemosensitivity to 5-fluorouracil of transfected cells (HCT 116 (wt-p53) cells [3])	suppression of cellular proliferation (HCT 116 (wt-p53) cells [4])	suppression of cellular proliferation (HCT 116 (null-p53) cells [5])	p21 protein expression (p21)	G1 arrest (HCT 116 (wt-p53) cells [6])	G2 arrest (HCT 116 (wt-p53) cells [6])	G1 and G2 arrest (HCT 116 (null-p53) cells [7])	chemosensitivity to methotrexate of transfected cells (HCT 116 (wt-p53) cells [8])	suppression of cellular proliferation (U-2 OS cells (wt-p53) [9])	suppression of cellular proliferation (MG63 cells (mut-p53) [10])	HDAC4 mRNA expression (HDAC4 mRNA)	G1 arrest (U-2 OS cells (wt-p53) [11])	G2 arrest (U-2 OS cells (wt-p53) [11])	G1 and G2 arrest (MG63 cells (mut-p53) [12])	p53 protein expression (p53)	HDAC4 protein expression (HDAC4 protein)
O=c1[nH]cc(F)c(=O)[nH]1 [5-FU, 5-fluorouracil]	about 20%	> 80%																
miR-140: miR-140 precursor (Ambion) transfected at 100 nM to overexpress human miR-140 (SEQ ID NO:1/2) (chain 1 AGUGGUUUUACCUAUGGUAG; chain 2 CAGUGGUUUUACCCUAUGGUAG; listed as RNA, chemistry not given here; listed as Homo sapiens)			more resistant	81.4±3.75%	22.42±1.88%	increased	3.33 fold	2.54 fold	has not been observed	more resistant	64.05±4.01%	31.3±4.96%	no change	1.76 fold	0.92 fold	has not been observed	increased	clearly decreased
